Assay results as given in patent US6617122B1, “Process for identifying modulators of ABC1 activity” (Xenon Genetics, Inc., priority 1999, dated 2003).

Experiments:
cholesterol efflux = conditions: cited from earlier work
ABC1 [1] = conditions: cited from earlier work
ABC1 [2] = target: ABC1 (Homo sapiens, UniProt O95477); conditions: cited from earlier work
ABC1 mRNA = ABC1 mRNA upon cholesterol loading; assay type: cell-based

Sequence of ABC1 (Homo sapiens, UniProt O95477) (O95477 whole entry): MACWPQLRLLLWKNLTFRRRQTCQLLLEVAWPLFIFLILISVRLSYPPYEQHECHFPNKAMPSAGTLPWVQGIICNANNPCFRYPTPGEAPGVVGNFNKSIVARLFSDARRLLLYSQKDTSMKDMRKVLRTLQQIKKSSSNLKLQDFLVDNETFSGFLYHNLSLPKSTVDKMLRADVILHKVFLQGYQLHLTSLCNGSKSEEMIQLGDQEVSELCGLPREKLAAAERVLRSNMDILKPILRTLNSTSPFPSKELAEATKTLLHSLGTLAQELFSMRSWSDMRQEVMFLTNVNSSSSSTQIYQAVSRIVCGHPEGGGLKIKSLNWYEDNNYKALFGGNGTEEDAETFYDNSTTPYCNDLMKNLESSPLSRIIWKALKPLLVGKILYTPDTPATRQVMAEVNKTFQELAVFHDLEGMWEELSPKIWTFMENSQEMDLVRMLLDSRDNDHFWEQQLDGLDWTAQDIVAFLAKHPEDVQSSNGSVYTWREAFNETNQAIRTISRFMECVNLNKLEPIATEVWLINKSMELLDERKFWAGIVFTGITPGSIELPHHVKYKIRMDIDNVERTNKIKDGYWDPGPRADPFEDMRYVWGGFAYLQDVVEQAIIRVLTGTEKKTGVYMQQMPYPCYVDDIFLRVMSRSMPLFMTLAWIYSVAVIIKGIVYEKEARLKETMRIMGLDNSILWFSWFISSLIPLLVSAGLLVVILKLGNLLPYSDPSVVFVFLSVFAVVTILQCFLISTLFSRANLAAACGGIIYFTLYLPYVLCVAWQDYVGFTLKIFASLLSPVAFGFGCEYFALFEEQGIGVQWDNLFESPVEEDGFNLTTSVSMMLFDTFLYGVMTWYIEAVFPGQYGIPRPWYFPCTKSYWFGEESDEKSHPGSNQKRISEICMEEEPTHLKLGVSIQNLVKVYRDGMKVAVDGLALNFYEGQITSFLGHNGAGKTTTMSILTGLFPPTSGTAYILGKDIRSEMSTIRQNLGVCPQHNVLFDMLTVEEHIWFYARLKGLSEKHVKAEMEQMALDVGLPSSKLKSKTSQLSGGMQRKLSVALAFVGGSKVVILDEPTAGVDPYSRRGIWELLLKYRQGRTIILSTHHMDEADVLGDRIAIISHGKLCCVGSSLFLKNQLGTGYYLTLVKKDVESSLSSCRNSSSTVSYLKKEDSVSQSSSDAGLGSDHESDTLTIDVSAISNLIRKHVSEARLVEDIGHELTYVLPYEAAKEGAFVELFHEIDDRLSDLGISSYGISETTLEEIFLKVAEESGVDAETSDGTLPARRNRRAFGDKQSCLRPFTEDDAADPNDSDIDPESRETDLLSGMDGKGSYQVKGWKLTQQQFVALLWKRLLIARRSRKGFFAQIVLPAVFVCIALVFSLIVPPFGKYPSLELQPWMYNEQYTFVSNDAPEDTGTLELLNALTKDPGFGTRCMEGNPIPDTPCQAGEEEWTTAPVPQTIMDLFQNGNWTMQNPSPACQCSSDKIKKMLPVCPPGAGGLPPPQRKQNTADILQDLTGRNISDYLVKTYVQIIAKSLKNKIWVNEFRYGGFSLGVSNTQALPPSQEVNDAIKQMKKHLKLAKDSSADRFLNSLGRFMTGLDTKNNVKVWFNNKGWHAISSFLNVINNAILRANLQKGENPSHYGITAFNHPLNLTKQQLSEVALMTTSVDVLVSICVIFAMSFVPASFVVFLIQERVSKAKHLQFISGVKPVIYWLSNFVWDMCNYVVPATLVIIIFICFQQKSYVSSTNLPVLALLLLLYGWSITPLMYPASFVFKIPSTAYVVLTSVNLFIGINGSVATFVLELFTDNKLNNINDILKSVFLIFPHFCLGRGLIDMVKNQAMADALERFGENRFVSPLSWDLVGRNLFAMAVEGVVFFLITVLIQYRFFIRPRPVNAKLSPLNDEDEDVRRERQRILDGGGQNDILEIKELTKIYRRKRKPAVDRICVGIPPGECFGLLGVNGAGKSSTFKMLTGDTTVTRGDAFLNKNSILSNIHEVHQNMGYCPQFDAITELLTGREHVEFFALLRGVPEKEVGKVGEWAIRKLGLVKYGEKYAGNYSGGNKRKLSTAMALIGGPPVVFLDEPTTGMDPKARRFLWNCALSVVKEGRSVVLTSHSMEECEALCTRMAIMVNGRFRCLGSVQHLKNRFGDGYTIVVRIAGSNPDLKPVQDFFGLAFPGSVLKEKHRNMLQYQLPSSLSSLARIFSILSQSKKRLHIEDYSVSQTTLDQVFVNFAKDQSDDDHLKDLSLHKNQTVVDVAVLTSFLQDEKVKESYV

Row | Compound | inhibition of ABC1 (ABC1 [1]) | upregulation of ABC1 expression or biological activity (ABC1 [2]) | also measured
1 | C[C@H]1CCC/C=C/[C@@H]2C[C@H](O)C[C@H]2[C@H](O)/C=C/C(=O)O1 [Brefeldin] | – | – | cholesterol efflux (cholesterol efflux): significantly inhibits cholesterol efflux
2 | O=S(=O)(O)c1cc(N=C=S)ccc1C=Cc1ccc(N=C=S)cc1S(=O)(=O)O [DIDS] | inhibit | – | –
3 | CC(C)Cn1c(=O)n(C)c(=O)c2[nH]cnc21 [IBMX1] | – | upregulate | –
4 | CC(C)CCC[C@@H](C)[C@H]1CC[C@H]2[C@@H]3CC=C4C[C@@H](O)CC[C@]4(C)[C@H]3CC[C@]12C [cholesterol] | – | – | increase of ABC1 mRNA (ABC1 mRNA): approximately 8 fold
5 | O=C(O)c1ccccc1Nc1ccccc1 [diphenylamine-2-carbonic acid] | inhibit | – | –
6 | O=C(O)c1ccccc1Nc1cccc(C(F)(F)F)c1 [flufenamic acid] | inhibit | – | –
7 | COc1ccc(Cl)cc1C(=O)NCCc1ccc(S(=O)(=O)NC(=O)NC2CCCCC2)cc1 [glibenclamide] | inhibit | – | –
8 | C=C1[C@@H](O)[C@@H]2O[C@]3(CC[C@H](/C=C/[C@@H](C)[C@@H]4CC(C)=C[C@@]5(O[C@H](C[C@@](C)(O)C(=O)O)CC[C@H]5O)O4)O3)CC[C@H]2O[C@@H]1[C@@H](O)C[C@H](C)[C@H]1O[C@@]2(CCCCO2)CC[C@H]1C [okadaic acid] | – | upregulate | –
9 | O=C1OC(c2ccc(O)c(S(=O)(=O)O)c2)(c2ccc(O)c(S(=O)(=O)O)c2)c2c(Br)c(Br)c(Br)c(Br)c21 [sulfobromophthalein] | inhibit | – | –
10 | [O]=[V]([O-])([O-])[O-] [vanadate] | – | upregulate | –
